pIC50: −log10 of the molar value.
Tests used:
Format in all cases: cell-based
Details in all cases: SRB staining
[1] = test system: human skin cancer cell (A431, wild-type EGFR); test: Proliferation inhibition (SRB) on human skin cancer cell A431
Text: (§1) The pharmacodynamic action of the compound of the present invention in terms of inhibiting the proliferation of cancer cells may be assayed by conventional methods. […] Inhibition ratio (%)=[(blank control OD−inhibitor OD)/blank control OD]×100%
(§2) Blank control OD: the OD value of the well of normally growed cells without the action of a drug.
(§3) Inhibitor OD: the OD value of the well of cells with the action of the added compounds to be screened.
(§4) The median inhibitory concentration (IC50) value is obtained by the software GraphPad Prism 5.0 by the 4-parameter logistic curve fit calculation. Each experiment is repeated three times, and the average IC50 value for three experiments is used as the final index for the inhibitory ability.
(§5) Cells in the logarithmic phase were inoculated to 96-well culture plates (cell density: 5000/well, cell suspension: 180 μl/well), and cultured at 37° C. under 5% CO2 for 24 hours. After the culturing, the cells adhered to the well walls. Each of compounds was dissolved in DMSO in advance to formulate a […] stock solution. Upon testing, the stock solution was diluted with complete medium to 10 times the target concentration in another 96-cell plate. And then the compound was added at 20 μl/cell in the 96-well plate in which the cells were inoculated, i.e. the target concentration could be reached. The well for each concentration was triplicated, and the blank control was established. Cells continued to be cultured at 37° C. under 5% CO2 for 72 hours. After the termination of culturing, 50 μl pre-cooled (4° C.) 50% trichloroacetic acid, i.e., TCA was added to each of wells (final concentration=10%), and was placed at 4° C. for 1 hour to fix the cells. The resulting matter was washed with purified water for at least 5 times, and dried naturally in air or at 60° C. in an oven. 4 mg/ml Sulforhodamine B (SRB) solution prepared by 1% glacial acetic acid/purified water was added at 100 μl/well to each well so as to stain for 1 hour at room temperature. The supernatant was discarded. The residue was washed with 1% acetic acid for at least 5 times to remove the non-specifically binding, and dried for use. To each well was added 150 μl of 10 mM Tris-HCl solution for dissolving the contents therein.

[2] = test system: human lung cancer cell (HCC827, EGFR Exon 19 deletion activating mutation); test: Proliferation inhibition (SRB) on human lung cancer cell HCC827
Text: as §1, §2, §3, §4, §5

[3] = test system: human lung cancer cell (H1975, EGFR L858R/T790M resistant mutation); test: Proliferation inhibition (SRB) on human lung cancer cell H1975
Text: as §1, §2, §3, §4, §5

Row | SMILES | pIC50 ([1]; Homo sapiens, A-431, 72 h) | pIC50 ([3]; Homo sapiens, NCI-H1975, 72 h) | pIC50 ([2]; Homo sapiens, HCC827, 72 h) | also measured
1 | C=CC(=O)Nc1cc(Nc2nccc(-c3cn(C)c4ccccc34)n2)c(OC)cc1N(C)CCN(C)C [AZD9291, reference compound] |  |  |  | pIC50 ([1]; Homo sapiens, A-431, 72 hours): 7.15; pIC50 ([2]; Homo sapiens, 72 hours): 8.42
2 | C=CC(=O)Nc1cc(Nc2ncc(Cl)c(-c3cn(C)c4ccccc34)n2)c(OC(C)C)nc1N(C)CCN(C)C [Example 1 compound, N-{2-{[2-(dimethylamino)ethyl](methyl)amino}-6-isopropyloxy-5-{5-chloro-[4-(1-methyl-1H-indol-3-yl)pyrimidin-2-yl]amino}pyridin-3-yl}acrylamide] |  |  |  | pIC50 ([1]; 72 hours): 6.85; pIC50 ([3]; 72 hours): 8.25; pIC50 ([2]; 72 hours): 8.67
3 | C=CC(=O)Nc1cc(Nc2nccc(-c3cn(C)c4ccccc34)n2)c(OCC(F)(F)F)nc1N(C)CCN(C)C [Example 3 compound, N-{2-{[2-(dimethylamino)ethyl](methyl)amino}-6-(2,2,2-trifluoroethoxyl)-5-{[4-(1-methyl-1H-indol-3-yl)pyrimidin-2-yl]amino}pyridin-3-yl}acrylamide] | 6.65 | 8.64 | 8.87 | 
4 | C=CC(=O)Nc1cc(Nc2nccc(-c3cn(C)c4ccc(F)cc34)n2)c(OC(C)C)nc1N(C)CCN(C)C [Example 5 compound, N-{2-{[2-(dimethylamino)ethyl](methyl)amino}-6-isopropyloxy-5-{[4-(1-methyl-5-fluoro-1H-indol-3-yl)pyrimidin-2-yl]amino}pyridin-3-yl}acrylamide] | 6.74 | 8.32 | 8.59 | 
5 | C=CC(=O)Nc1cc(Nc2nccc(-c3cn(C)c4cc(F)c(F)cc34)n2)c(OC(C)C)nc1N(C)CCN(C)C [Example 6 compound, N-{2-{[2-(dimethylamino)ethyl](methyl)amino}-6-isopropyloxy-5-{[4-(1-methyl-5,6-difluoro-1H-indol-3-yl)pyrimidin-2-yl]amino}pyridin-3-yl}acrylamide] | 6.47 | 8.28 | 8.63 | 
6 | C=CC(=O)Nc1cc(Nc2ncc(F)c(-c3cn(C)c4ccc(F)cc34)n2)c(OC(C)C)nc1N(C)CCN(C)C [Example 10 compound, N-{2-{[2-(dimethylamino)ethyl](methyl)amino}-6-isopropyloxy-5-{5-fluoro-[4-(1-methyl-5-fluoro-1H-indol-3-yl)pyrimidin-2-yl]amino}pyridin-3-yl}acrylamide] | 6.68 | 8.27 | 8.58 | 
7 | C=CC(=O)Nc1cc(Nc2ncc(F)c(-c3cn(C)c4cc(F)c(F)cc34)n2)c(OC(C)C)nc1N(C)CCN(C)C [Example 12 compound, N-{2-{[2-(dimethylamino)ethyl](methyl)amino}-6-isopropyloxy-5-{5-fluoro-[4-(1-methyl-5,6-difluoro-1H-indol-3-yl)pyrimidin-2-yl]amino}pyridin-3-yl}acrylamide] | 6.47 | 8.05 | 9.02 | 
8 | C=CC(=O)Nc1cc(Nc2nccc(-c3cn(C)c4cc(F)ccc34)n2)c(OC(C)C)nc1N(C)CCN(C)C [Example 13 compound, N-{2-{[2-(dimethylamino)ethyl](methyl)amino}-6-isopropyloxy-5-{[4-(1-methyl-6-fluoro-1H-indol-3-yl)pyrimidin-2-yl]amino}pyridin-3-yl}acrylamide] | 6.68 | 8.27 | 8.58 | 
9 | C=CC(=O)Nc1cc(Nc2ncc(F)c(-c3cn(C)c4ccccc34)n2)c(OCC(F)(F)F)nc1N(C)CCN(C)C [Example 14 compound, N-{2-{[2-(dimethylamino)ethyl](methyl)amino}-6-(2,2,2-trifluoroethoxyl)-5-{5-fluoro-[4-(1-methyl-1H-indol-3-yl)pyrimidin-2-yl]amino}pyridin-3-yl}acrylamide] | 6.62 | 8.29 | 9.11 | 
10 | C=CC(=O)Nc1cc(Nc2nccc(-c3cn(C)c4ccc(F)cc34)n2)c(OCC(F)(F)F)nc1N(C)CCN(C)C [Example 15 compound, N-{2-{[2-(dimethylamino)ethyl](methyl)amino}-6-(2,2,2-trifluoroethoxyl)-5-{[4-(1-methyl-5-fluoro-1H-indol-3-yl)pyrimidin-2-yl]amino}pyridin-3-yl}acrylamide] | 6.47 | 8.20 | 9.16 | 
11 | C=CC(=O)Nc1cc(Nc2ncc(Cl)c(-c3cn(C)c4cc(F)c(F)cc34)n2)c(OC(C)C)nc1N(C)CCN(C)C [Example 17 compound, N-{2-{[2-(dimethylamino)ethyl](methyl)amino}-6-isopropyloxy-5-{5-chloro-[4-(1-methyl-5,6-difluoro-1H-indol-3-yl)pyrimidin-2-yl]amino}pyridin-3-yl}acrylamide methanesulfonate] |  |  |  | pIC50 ([3]; 72 hours, methanesulfonate): 8.12; pIC50 ([2]; 72 hours, methanesulfonate): 8.25
12 | C=CC(=O)Nc1cc(Nc2nccc(-c3cn(C)c4cc(F)c(F)cc34)n2)c(OC(C)C)nc1N(C)CCN(C)C [Example 18 compound, N-{2-{[2-(dimethylamino)ethyl](methyl)amino}-6-isopropyloxy-5-{[4-(1-methyl-5,6-difluoro-1H-indol-3-yl)pyrimidin-2-yl]amino}pyridin-3-yl}acrylamide methanesulfonate] |  |  |  | pIC50 ([1]; 72 hours, methanesulfonate): 6.47; pIC50 ([3]; 72 hours, methanesulfonate): 8.29; pIC50 ([2]; 72 hours, methanesulfonate): 8.65

Further lines, with some results ahead:

Row | pIC50 ([1]; Homo sapiens, A-431, 72 h) | pIC50 ([3]; Homo sapiens, NCI-H1975, 72 h) | pIC50 ([2]; Homo sapiens, HCC827, 72 h) | SMILES | also measured
13 | 6.71 | 8.26 | 8.37 | C=CC(=O)Nc1cc(Nc2nccc(-c3cn(C)c4ccccc34)n2)c(OC(C)C)nc1N(C)CCN(C)C [Example 2 compound, N-{2-{[2-(dimethylamino)ethyl](methyl)amino}-6-isopropyloxy-5-{[4-(1-methyl-1H-indol-3-yl)pyrimidin-2-yl]amino}pyridin-3-yl}acrylamide] | 
14 | 6.79 | 8.21 | 8.72 | C=CC(=O)Nc1cc(Nc2ncc(Cl)c(-c3cn(C)c4ccccc34)n2)c(OCC(F)(F)F)nc1N(C)CCN(C)C [Example 4 compound, N-{2-{[2-(dimethylamino)ethyl](methyl)amino}-6-(2,2,2-trifluoroethoxyl)-5-{5-chloro-[4-(1-methyl-1H-indol-3-yl)pyrimidin-2-yl]amino}pyridin-3-yl}acrylamide] | 
15 | 6.51 | 7.78 | 8.85 | C=CC(=O)Nc1cc(Nc2ncc(Cl)c(-c3cn(C)c4cc(F)ccc34)n2)c(OC(C)C)nc1N(C)CCN(C)C [Example 7 compound, N-{2-{[2-(dimethylamino)ethyl](methyl)amino}-6-isopropyloxy-5-{5-chloro-[4-(1-methyl-6-fluoro-1H-indol-3-yl)pyrimidin-2-yl]amino}pyridin-3-yl}acrylamide] | 
16 | 6.43 | 8.08 | 8.22 | C=CC(=O)Nc1cc(Nc2ncc(Cl)c(-c3cn(C)c4cc(F)c(F)cc34)n2)c(OC(C)C)nc1N(C)CCN(C)C [Example 8 compound, N-{2-{[2-(dimethylamino)ethyl](methyl)amino}-6-isopropyloxy-5-{5-chloro-[4-(1-methyl-5,6-difluoro-1H-indol-3-yl)pyrimidin-2-yl]amino}pyridin-3-yl}acrylamide] | 
17 | 6.16 | 7.90 | 8.93 | C=CC(=O)Nc1cc(Nc2ncc(Cl)c(-c3cn(C)c4ccc(F)cc34)n2)c(OC(C)C)nc1N(C)CCN(C)C [Example 9 compound, N-{2-{[2-(dimethylamino)ethyl](methyl)amino}-6-isopropyloxy-5-{5-chloro-[4-(1-methyl-5-fluoro-1H-indol-3-yl)pyrimidin-2-yl]amino}pyridin-3-yl}acrylamide] | 
18 | 6.68 | 8.14 | 8.65 | C=CC(=O)Nc1cc(Nc2ncc(F)c(-c3cn(C)c4ccccc34)n2)c(OC(C)C)nc1N(C)CCN(C)C [Example 11 compound, N-{2-{[2-(dimethylamino)ethyl](methyl)amino}-6-isopropyloxy-5-{5-fluoro-[4-(1-methyl-1H-indol-3-yl)pyrimidin-2-yl]amino}pyridin-3-yl}acrylamide] | 
19 | 6.56 | 8.27 | 8.84 | C=CC(=O)Nc1cc(Nc2ncc(Cl)c(-c3cn(C)c4ccccc34)n2)c(OC(C)C)nc1N(C)CCN(C)C [Example 16 compound, N-{2-{[2-(dimethylamino)ethyl](methyl)amino}-6-isopropyloxy-5-{5-chloro-[4-(1-methyl-1H-indol-3-yl)pyrimidin-2-yl]amino}pyridin-3-yl}acrylamide methanesulfonate] | 

From patent publication USRE48687E1, “Pyridinylaminopyrimidine derivatives, preparation process and use thereof” (Shanghai Allist Pharmaceuticals Co., Ltd., priority 2014, dated 2021)
